# From ChEMBL document CHEMBL3507680, “University of Dundee, Gates Library screen for HepG2 cell viability”
# Assay: Human HepG2 cell viability assay in 384 well format
# Type: toxicity, cell-based
# Design: dose 125 nL, time 70.5 hour; cytotoxicity at 70.5 h: concentration not given beside the values
# Settings: HepG2 cells, read-out: Inhibition
row,SMILES,cytotoxicity at 70.5 h [%]
1,c1ccc(Cc2noc(CN3CCc4c(ncn4C4CC4)C3)n2)cc1,11.8
2,Nc1c(C(=O)C2CCCN(C(=O)C3CC3)C2)cnn1-c1ccc(F)cc1 (centres undefined),-2.33
3,CC(=O)N1CCc2c(nc(N(C)C)nc2NCCCn2ccnc2)C1,-8.48
4,COc1ncc(-c2ccc(C(N)=O)cc2)c(OC)n1,-8.59
5,Cc1n[nH]c(C)c1CCCN(C)c1cc(N(C)C)ncn1,6.66
6,Cc1cc2cc(CNC(=O)c3cnn4c3OCCC4)ccc2[nH]1,-1.4
7,Cc1noc(CCNC(=O)NCc2ccc(N3CCCCC3)cc2)n1,-5.09
8,CCCNC(=O)c1nn(CC)cc1NC(=O)c1cn(C)nc1C,-12.7
9,Cc1c(C(=O)NS(=O)(=O)c2ccc(F)cc2)cnn1CC(C)C,20.5
10,Cc1noc(C)c1Cn1cc(I)cc(C)c1=O,4.77
11,CCOc1nn(CC)cc1-c1nnc(SCc2cccnc2)n1CC,-7.15
12,CCN1C[C@H]2C[C@H](C(=O)NCc3cccnc3)[C@@H](C1)O2,3.07
13,CCC1CN(CCNS(C)(=O)=O)c2ccccc2O1 (centres undefined),-2.49
14,O=S(=O)(c1cn[nH]c1)N1CCC(O)(CN2CCC(F)(F)CC2)C1 (centres undefined),1.83
15,CCC(CNC(=O)c1cncc(Br)c1)N1CCc2ccccc2C1 (centres undefined),-5.93
16,O=C1OCCN1c1cccc(CNS(=O)(=O)Cc2ccc(F)cc2)c1,-6.39
17,CCCN(CCC)c1nc(N)nc(-c2cc(Cl)ccc2OC)n1,-2.85
18,c1snnc1CN1C[C@H]2CCC[C@@H](CN3CCOCC3)[C@H]2C1,-7.77
19,COc1ccc(CC(=O)N2CC[C@@H]3[C@H](CC2)N(C)CCS3(=O)=O)cc1,-8.6
20,Cc1ncsc1C(=O)N1CC(C)Sc2ccccc21 (centres undefined),-8.57
21,Cn1c(C2CCCN2C(=O)CN2CSCC2=O)nc2ccccc21 (centres undefined),-5.23
22,COCCNC(=O)C(C)n1cc(Br)cn1 (centres undefined),-15.1
23,CC1CN(C)CCN1CC(=O)NCCOc1cccc(F)c1 (centres undefined),-1.27

row,SMILES,cytotoxicity at 70.5 h [%]
1,O=C(CCn1cc(Cl)cn1)N1CCN(CC2CC2)[C@@H]2CS(=O)(=O)C[C@@H]21,-10.2
2,Cc1[nH]c2c(F)cccc2c1CC(=O)NCCCNc1cccnc1,-11.8
3,O=S(=O)(C1CC1)N1CCC2(CC1)CC(Oc1cccnc1)CO2 (centres undefined),-11.5
4,O=C1CCSCC(C(=O)N2CCC3(CC2)OCCO3)N1 (centres undefined),-14.2
5,c1ccc(C2CCCN2Cc2nc(-c3cnccn3)no2)nc1 (centres undefined),-6.26
6,Cc1ccc2c(c1)OC1(NC2=O)C(=O)N(C)c2ccccc21 (centres undefined),16.7
7,CN1CCS(=O)(=O)[C@@H]2CCN(C(=O)CC(C)(C)C)CC[C@@H]21,-3.84
8,CCC(=O)Nc1cccc(OCC(=O)N(C)Cc2ccon2)c1,8.51
9,Cc1cccc(-n2cnc(Cl)c2C(=O)O)c1,-16.5
10,CN(C1CCN(C(=O)NCCc2ccc(F)cc2F)CC1)S(C)(=O)=O,-5.3
11,Cn1ncc(N2CCOC(CCNC(=O)CO)C2)cc1=O (centres undefined),13.3
12,Cc1noc2ncc(S(=O)(=O)N3CCCC(C)(C)CC3)cc12,-2.62
13,CN(C)C[C@@H]1CCC[C@@H]2CN(c3ncccn3)C[C@@H]21,-13
14,CN(Cc1cccs1)S(=O)(=O)c1ccc(C(F)(F)F)nc1,-20.9
15,O=C(Cc1cccnc1)NC1COc2ccccc2C1=O (centres undefined),-14.7
16,O=C(CCn1cncn1)NC1CCc2nccn2C1 (centres undefined),-0.747
17,CCN(CCC(F)(F)F)C(=O)Nc1cccc(N2CCOCC2)c1,-7.71
18,Nc1nccnc1C(=O)NC1CCN(Cc2ccccc2)C1 (centres undefined),-10.2
19,O=C(O)c1cnc(N2CCCC2)nc1COc1ccc(F)cc1,-21.1
20,CNC(=O)[C@@]12CCO[C@@H]1CCN(S(=O)(=O)c1cccnc1)C2,-13.7
21,CC(C)c1n[nH]c(C(=O)Nc2ccnn2C(C)C)c1Br,45.8
22,CCn1nc(C)c2ccn(CC(=O)NCC3CCCO3)c(=O)c21 (centres undefined),-5.94
23,Cc1noc(CN(C)CC(c2cccs2)N2CCOCC2)n1 (centres undefined),-4.96

row,SMILES,cytotoxicity at 70.5 h [%]
1,CCNC(=O)NC(=O)CN(CC(C)O)c1ccccc1 (centres undefined),-7.42
2,CCCc1cc(=O)[nH]c2nnc(SCC(=O)NCCc3ccccc3)n12,-5.81
3,CCOCCC(=O)N1Cc2cnc(-c3ccccc3)nc2C1,-12.5
4,Cc1ccc(C(=O)N2CCCc3c(c(=O)n(C)n3C)C2)o1,11.7
5,COc1ccccc1CC1CCCN(C(=O)c2cc[nH]n2)C1 (centres undefined),-6.57
6,Cc1nn(-c2ccc(C(=O)O)cc2)c2c1C(c1ccsc1)SCC(=O)N2 (centres undefined),-1.43
7,O=C(CCC(=O)N1CCC(OCc2cccnc2)CC1)c1ccccc1,-1.13
8,CC(C)OCCNC1(c2ccc(F)cc2)CCOCC1,-3.2
9,CC(C)CN(Cc1ccsc1)C(=O)CCCn1cncn1,-0.11
10,CC(=O)NC1CCN(C(=O)Nc2ccc(SC(F)F)cc2)CC1,-4.73
11,CNc1cc2c(nn1)CCN(C(=O)c1ccc3c(c1)OCO3)C2,-8.95
12,CCO[C@H]1CC[C@H]2[C@H]1OCCN2C(=O)CC1=CCCCC1,24
13,CC(C)(C)OC(=O)N(CCNS(=O)(=O)N1CCOCC1)C1CC1,-3.4
14,CS(=O)(=O)N1CCOCC2(CN(Cc3ccccn3)CCO2)C1 (centres undefined),-5.98
15,Cc1ccc(CN2CCC(n3cc(C(O)c4ccccc4)nn3)CC2)o1 (centres undefined),-5.94
16,Cc1cc(C(=O)N2CC(O)CO2)c2ccc(C)c(C)c2n1 (centres undefined),-6.82
17,CCc1noc(C)c1C(=O)N1CCCC(n2nc(C)nc2C)C1 (centres undefined),-2.69
18,Cn1ncc2c(=O)[nH]c(CN3CCCC3c3ccccc3Cl)nc21 (centres undefined),-8.75
19,CCCS(=O)(=O)c1ncc(CN2CCC(CO)CC2)n1CC1CCCO1 (centres undefined),-4.07
20,CCCc1nc(CN2CCOC(Cn3cccn3)C2)no1 (centres undefined),-1.75
21,Nc1ncnc2nc(C3CCN(C(=O)Cc4ccccc4)C3)ccc12 (centres undefined),13.4
22,Cc1cc(CN2CCN(C(=O)NC(C)c3cccs3)CC2)on1 (centres undefined),-5.41
23,COC(=O)Cc1cccc(NC(=O)Cc2ccon2)c1,23.7

row,SMILES,cytotoxicity at 70.5 h [%]
1,O=C(NCc1cccc(F)c1)N1CCc2ncnc(NC3CC3)c2CC1,1.62
2,CCn1ncc(CN2CCc3nc(-c4cccnc4)nc(O)c3C2)c1C,9.93
3,CCc1cnc(C)nc1NCCN1CCCC(C(N)=O)C1 (centres undefined),0.301
4,Cn1nc(CNC(=O)CN2C(=O)CCC2=O)cc1C1CC1,1.45
5,COc1cnc(N2C[C@@H](CN3CCOCC3)[C@@H](CO)C2)nc1,-5.35
6,Cc1cc(C)c(OCC(=O)NS(=O)(=O)c2c(C)noc2C)c(C)c1,12.1
7,O=C(Cc1ccccc1)N1CCCC2(COCCN(CC3CC3)C2)C1 (centres undefined),-0.0192
8,COc1ncccc1CN1C[C@@H]2OCCN(CCN(C)C)[C@@H]2C1,-3.67
9,O=C(c1cccnc1O)N1CCCC2(C=Cc3ccccc3O2)CC1 (centres undefined),-4.51
10,O=C(NCCc1c[nH]c2ccc(F)cc12)C1(n2cnnn2)CCCCC1,-22.2
11,CCn1cc(CN2CCCN(C(=O)c3sc(C)nc3C)CC2)cn1,4.77
12,Cc1noc(C)c1CN(C)Cc1csc(-c2ccc(F)cc2)n1,-8.1
13,CC1(C)Cc2ccc(C(=O)NC3CCOCC3)c(O)c2O1,7.2
14,CCOc1ccccc1C(C(=O)O)N(C)Cc1cc(C)[nH]n1 (centres undefined),-5.35
15,OC[C@@H](O)CN(CCC(F)(F)F)c1ncccn1,5.67
16,CCCn1nnnc1CN(C)C(C)c1ccc(C)cc1 (centres undefined),-5.6
17,CN(C)c1nc2c(c(N3CCC4(CCCNC4=O)C3)n1)CCCC2 (centres undefined),8.69
18,c1cc2n(n1)CC(CNCc1ccc(OC3CCCC3)nc1)CN2 (centres undefined),-14.1
19,COc1ccc(NC(=O)c2cnc(N(C)C3CCCCC3)nc2N)cc1,2.82
20,CCn1c(C)nnc1Sc1nn2cc(C)nc2s1,-5.8
21,CCNS(=O)(=O)c1ccc2c(c1)c(=O)n(CC)c(=O)n2CC,2
22,CC(NC(=O)N(C)CCOc1ccccc1F)c1nncn1C (centres undefined),-4.64
23,CC(C)c1nccc(CN(C)Cc2cccc(-n3cccn3)c2)n1,-1.47

row,SMILES,cytotoxicity at 70.5 h [%]
1,CCN(CC)C(C)CNC(=O)c1cccnc1Oc1cccnc1 (centres undefined),-5.14
2,O=C(c1coc(CN2CCN(c3ccccc3F)CC2)n1)N1CCCC1,5.68
3,Cn1c(NC(=O)CNC(=O)C2CC2)nc2cc(Cl)ccc21,-7.94
4,Cc1cnn(C2CN(Cc3nnc(Cc4ccccc4)o3)C2)c1,-13.1
5,CC(=O)c1ccc(OCC(C)O)cc1O (centres undefined),5.87
6,Cc1ccc(-c2nnc(CN3CCc4nn(C)c(=O)cc4C3)o2)cc1,3.35
7,COC(=O)c1ccc(S(=O)(=O)NCC(O)c2sccc2C)cc1 (centres undefined),-2.62
8,COCc1cc(NCc2cccnc2Oc2ccc(C)nc2)ncn1,-12.4
9,Cc1cc(CN(C)C(=O)CN2CC3(CCNCC3)OC2=O)no1,-15.9
10,CCC[C@@H](NC(N)=O)C(=O)N1CCc2c(Cl)cccc2C1,-2.76
11,O=C(C1CC(c2cccc(F)c2)=NO1)N1CCc2ccccc21 (centres undefined),-4.18
12,CCOC[C@@]12CCC[C@@H]1CN(C(=O)c1ccc(OC)cc1)C2,4.26
13,CC(=O)NCCNC(=O)Nc1cccc(Cl)c1SC(F)F,-0.195
14,CCC(=O)NCC(c1ccc(SC)cc1)N1CCc2sccc2C1 (centres undefined),-8.32
15,COc1cc(N2CCCn3cnc(COC(C)C)c3C2)ncn1,13.3
16,c1ccc(-n2ccnc2)c(CNCC2CNc3ccnn3C2)c1 (centres undefined),-20.8
17,COc1ccc2c(O)c(NC(=O)NCC3CC3)cnc2c1,9.51
18,CCc1c(C(=O)N2CC[C@H](N3CCOCC3)[C@H](CCCO)C2)csc1C,-20.4
19,COCCO[C@@H]1CCN(C(=O)c2ccnnc2)[C@H]1Cc1cnn(C)c1,-116
20,O=C(O)C1(Cc2ccc(F)cc2F)CCCN(Cc2ccncc2)C1 (centres undefined),-5.04
21,NCCC(=O)NCC1(O)CCCN(c2ccnc3cccnc23)C1 (centres undefined),-3.53
22,CSCCc1c(-c2ccccc2)ncn1CCNc1cccnc1,-8.03
